According to US10780101B2, “Amide derivatives of squalamine for the treatment of infections” (VIRBAC, priority 2016, dated 2020):
≈ marks a conversion by molar mass, not a printed value. Like-named read-outs stand apart in the source and are kept apart here.

Tests used:
E. coli Human ATCC 28922 = experiment: MIC determination, E. coli human ATCC 28922; format: cell-based; conditions: Escherichia coli, ATCC28922; Gram-negative; Mueller-Hinton medium, 24 h at 37° C.
Protocol: (§1) A negative control (2 mL of sterile culture medium)
(§2) A positive control (1940 μL of culture medium+40 μL of DMSO+20 μL of the bacterial suspension) from a thawed biological strain (the biological strains are stored at −80° C. in glycerol).
(§3) The tubes were incubated at 37° C. for 24 hours at 100 rpm.
(§4) The microorganisms were handled under a type L2 laboratory fume cupboard and, before any handling, a UV cycle was programmed and only sterile material was used. […] The chemical compounds to be tested were prepared in a DMSO/methanol mixture (50/50) at a concentration of 5 mg/mL.
(§5) After 24 hours of incubation, a measurement of the optical density was taken using a spectrophotometer at 600 nm, collecting 100 μL of the bacterial suspension diluted in 900 μL of the sterile culture medium. This test required the use of a 96-well plate and the required volume of the microbial suspension to be seeded was calculated for an OD corresponding to a value equal to 0.01 in each well. In this plate, the first line corresponded to the negative control (195 μL of sterile culture medium in each well), the second line corresponded to the positive control (seeded culture medium supplemented with 2% of DMSO), and the third line was loaded twice with bacterial suspension; 8 μL of test product were placed in each well. Thereafter, a 0.5 cascade dilution was performed from this line.
(§6) The first column served as inhibition control. A sterile filter was then placed on the microplate, allowing the passage of gases but not of contaminants. The microplate was incubated at 37° C. under a humid atmosphere for 24 hours.
(§7) NB: The medium used is Mueller-Hinton (MH) medium for bacteria. All the tests were performed in duplicate.
(§8) After incubation, the filter was replaced with a transparent film, and an OD reading was then taken in an iEMS plate spectrophotometer at 620 nm. Calculation of the minimum inhibitory concentration (MIC) was performed.

[1] = test system: S. aureus Human ATCC 25923; experiment: MIC determination, S. aureus human ATCC 25923; format: cell-based; conditions: Staphylococcus aureus, ATCC25923; Gram-positive; Mueller-Hinton medium, 24 h at 37° C.
Protocol: as §1, §2, §3, §4, §5, §6, §7, §8

[2] = test system: P. aeruginosa Animal (1051575); experiment: MIC determination, P. aeruginosa animal (1051575); format: cell-based; conditions: Pseudomonas aeruginosa; Gram-negative; Mueller-Hinton medium, 24 h at 37° C.
Protocol: as §1, §2, §3, §4, §5, §6, §7, §8

P. aeruginosa (1051575) = experiment: Potentiation of doxycycline activity (combination MIC); format: cell-based, Pseudomonas aeruginosa; conditions: for MIC - P. aeruginosa (1051575): content of compound of formula (I) to restore the doxycycline activity (at 2 μg/mL): in presence of doxycycline 2 μg/mL, 24 hours at 37° C.
E. coli Animal (1956) = experiment: MIC determination, E. coli animal (1956); format: cell-based; conditions: Escherichia coli; Gram-negative; Mueller-Hinton medium, 24 h at 37° C.
Protocol: as §1, §2, §3, §4, §5, §6, §7, §8

[3] = test system: E. faecalis Human ATCC 29212; experiment: MIC determination, E. faecalis human ATCC 29212; format: cell-based; conditions: Enterococcus faecalis, ATCC29212; Gram-positive; Mueller-Hinton medium, 24 h at 37° C.
Protocol: as §1, §2, §3, §4, §5, §6, §7, §8

[4] = test system: P. aeruginosa Human ATCC 27853; experiment: MIC determination, P. aeruginosa human ATCC 27853; format: cell-based; conditions: Pseudomonas aeruginosa, ATCC27853; Gram-negative; Mueller-Hinton medium, 24 h at 37° C.
Protocol: as §1, §2, §3, §4, §5, §6, §7, §8

[5] = test system: S. intermedius Animal (1051997); experiment: MIC determination, S. intermedius animal (1051997); format: cell-based; conditions: Staphylococcus intermedius; Gram-positive; Mueller-Hinton medium, 24 h at 37° C.
Protocol: as §1, §2, §3, §4, §5, §6, §7, §8

S. aureus Animal (340) = experiment: MIC determination, S. aureus animal (340); format: cell-based; conditions: Staphylococcus aureus; Gram-positive; Mueller-Hinton medium, 24 h at 37° C.
Protocol: as §1, §2, §3, §4, §5, §6, §7, §8

CHO-K1 cells = experiment: WST1 cytotoxicity test on CHO-K1 cells; format: cell-based, Chinese hamster; conditions: Cricetulus griseus, read-out: IC50 (μg/mL) CHO
Protocol: Test WST1 was used to measure the cytotoxic activity of the products. This is a colorimetric test which makes it possible to measure the viability and the degree of cell proliferation. It is based on cleavage of the colorless tetrazolium salts WST-1 (4-[3-(4-iodophenyl)-2-(4-nitrophenyl)-2H-5-tetrazolio]-1,3-benzene disulfonate) with mitochondrial dehydrogenases to the yellow-colored formazan derivative, which may be quantified by spectrophotometry at 420-480 nm.
The WST1 test was performed on Chinese hamster ovary cells. The CHO-K1 cells (ATCC, USA) are kept in culture in McCoy's 5A medium supplemented with 10% fetal calf serum, 2 mM of L-glutamine and a mixture of penicillin-streptomycin (100 U/ml: 10 μg/ml). The culture is incubated at 37° C. under an atmosphere enriched in CO2 (5%), and subcultured every two days.
The cells are transferred into 96-well plates (25000 cells/mL) in whole McCoy's 5A medium, and maintained for 24 hours at 37° C. under a humid atmosphere enriched in CO2 (5%). Increasing concentrations of test products are added to the wells in double tests and 8 growth controls containing the cells in the medium alone are included in each series of tests. After 24 hours at 37° C. (5% CO2), the culture medium is removed, the cells are rinsed in phosphate buffer (PBS) and 50 μL of PBS containing 10% of reagent WST1 are added to each well. After 20 minutes of incubation at 37° C., the results are read by spectrophotometry at 450 nm.
The results are expressed in dose-response relationships, modeled by nonlinear regression analysis using the TableCurve software. The 50% inhibitory concentration (IC50) represents the concentration of product that is capable of reducing the cell viability by 50%.

Row | Structure (SMILES) | MIC (E. coli Human ATCC 28922) [µg/mL] | MIC [1] [µg/mL] | MIC [2] [µg/mL] | MIC - P. aeruginosa (1051575): content of compound of formula (I) to restore the doxycycline activity (at 2 μg/mL) (P. aeruginosa (1051575)) [µg/mL] | MIC (E. coli Animal (1956)) [µg/mL] | MIC [3] [µg/mL] | MIC [4] [µg/mL] | MIC [5] [µg/mL] | MIC (S. aureus Animal (340)) [µg/mL] | IC50 (CHO-K1 cells; CHO-K1, 24 h) [µg/mL] | synergism when administered with doxycycline (P. aeruginosa (1051575); doxycycline at 2 μg/mL) | IC50 (CHO-K1 cells; Table III, WST1 test, CHO-K1 cells, 24 hours) [µg/mL]
1 | CNC(=O)CC[C@@H](C)[C@H]1CCC2C3C(CC[C@@]21C)[C@@]1(C)CC[C@H](NCCCNCCCCNCCCN)CC1C[C@H]3O (stereo partly shown) [Compound (33)] | 14 (≈ 23.7 µM) | 3.5 (≈ 5.93 µM) | 2 (≈ 3.39 µM) | 1 | 7 (≈ 11.9 µM) | 14 (≈ 23.7 µM) | 7 (≈ 11.9 µM) | 0.8 (≈ 1.36 µM) | 1 (≈ 1.7 µM) | 35 (≈ 59.3 µM) |  | 
2 | CCN(CC)C(=O)CC[C@@H](C)[C@H]1CCC2C3C(CC[C@@]21C)[C@@]1(C)CC[C@H](NCCCNCCNCCCN)CC1C[C@H]3O (stereo partly drawn) [(53), 3β-(bis(3-aminopropyl)ethylenediamine)-N,N-diethylchenodeoxycholamide] | 60 (≈ 99.3 µM) | 4 (≈ 6.62 µM) | 15 (≈ 24.8 µM) | 2 | 15 (≈ 24.8 µM) | 2 (≈ 3.31 µM) | 30 (≈ 49.7 µM) | 2 (≈ 3.31 µM) | 4 (≈ 6.62 µM) | 30 (≈ 49.7 µM) |  | 
3 | CC(C)NC(=O)CC[C@@H](C)[C@H]1CCC2C3C(CC[C@@]21C)[C@@]1(C)CC[C@H](NCCCNCCCNCCCN)CC1C[C@@H]3O (stereo partly drawn) [(14), 3β-norspermino-N-isopropylursodeoxycholamide] | 128 (≈ 212 µM) | 16 (≈ 26.5 µM) | 128 (≈ 212 µM) | 1 | 128 (≈ 212 µM) | 128 (≈ 212 µM) | 64 (≈ 106 µM) | 4 (≈ 6.62 µM) | 32 (≈ 53 µM) | 90 (≈ 149 µM) |  | 
4 | CCN(CC)C(=O)CC[C@@H](C)[C@H]1CCC2C3C(CC[C@@]21C)[C@@]1(C)CC[C@H](NCCCNCCCN)CC1C[C@H]3O (stereo partly drawn) [(13), 3β-norspermidino-N,N-diethylchenodeoxycholamide] | 8 (≈ 14.3 µM) | 2 (≈ 3.57 µM) | 16 (≈ 28.5 µM) | 2 | 8 (≈ 14.3 µM) | 2 (≈ 3.57 µM) | 16 (≈ 28.5 µM) | 2 (≈ 3.57 µM) | 4 (≈ 7.13 µM) | 22 (≈ 39.2 µM) |  | 
5 | CC(C)NC(=O)CC[C@@H](C)[C@H]1CCC2C3C(CC[C@@]21C)[C@@]1(C)CC[C@H](NCCCN2CCN(CCCN)CC2)CC1C[C@H]3O (stereo partly drawn) [(9), 3β-(1,4-bis(3-aminopropyl)piperazine)-N-isopropylchenodeoxycholamide] | 15 (≈ 24.4 µM) | 16 (≈ 26 µM) | 62 (≈ 101 µM) | 2 | 15 (≈ 24.4 µM) | 62 (≈ 101 µM) | 124 (≈ 201 µM) | 8 (≈ 13 µM) | 8 (≈ 13 µM) | 90 (≈ 146 µM) | noteworthy synergism | 
6 | CC(C)NC(=O)CC[C@@H](C)[C@H]1CCC2C3C(CC[C@@]21C)[C@@]1(C)CC[C@H](NCCCN2CCN(CCCN)CC2)CC1C[C@@H]3O (stereo partly drawn) [(16), 3β-(1,4-bis(3-aminopropyl)piperazine)-N-isopropylursodeoxycholamide] | 60 (≈ 97.4 µM) | 60 (≈ 97.4 µM) | > 120 |  | 120 (≈ 195 µM) | 120 (≈ 195 µM) | > 120 | 15 (≈ 24.4 µM) | 60 (≈ 97.4 µM) |  |  | 
7 | CCN(CC)C(=O)CC[C@@H](C)[C@H]1CCC2C3C(CC[C@@]21C)[C@@]1(C)CC[C@H](NCCCNCCCNCCCN)CC1C[C@H]3O (stereo partly drawn) [(39), 3β-norspermino-N,N-diethylchenodeoxycholamide] | 120 (≈ 194 µM) | 2 (≈ 3.24 µM) | 8 (≈ 12.9 µM) | 2 | 4 (≈ 6.47 µM) |  | 15 (≈ 24.3 µM) | 1 (≈ 1.62 µM) | 1 (≈ 1.62 µM) |  |  | 
8 | CC(C)NC(=O)CC[C@@H](C)[C@H]1CCC2C3C(CC[C@@]21C)[C@@]1(C)CC[C@H](NCCNCCNCCNCCNCCN)CC1C[C@@H]3O (stereo partly drawn) [(23), 3β-(pentaethylenehexamine)-N-isopropylursodeoxycholamide] | 128 (≈ 198 µM) | 32 (≈ 49.4 µM) | 128 (≈ 198 µM) |  | 128 (≈ 198 µM) | 64 (≈ 98.8 µM) | 128 (≈ 198 µM) | 16 (≈ 24.7 µM) | 32 (≈ 49.4 µM) |  |  | 115 (≈ 177 µM)
